Structures can show the parent of a compound that is named as a salt. Bridge positions count the residues as written; N and C are the ends. Square brackets hold non-standard residues; d marks the D form. Peptide text beside a SMILES is read from it. * marks the point of attachment. Ileψ(thiazoline)Cys = CC[C@H](C)[C@H](N)C1=N[C@H](C(=O)*)CS1; dOrn = NCCC[C@@H](N)C(=O)O
These compounds were tested on ATGL-KO iPSCs (assay: High throughput iPSC chemical screening, Oil Red O (ORO) lipid accumulation). Conditions: not given.
Assay type: cell-based, mouse
Throughout, for Z-score: test concentration or dose not given here.

SMILES | Z-score
CC(C)(C)CC(C)(C)c1ccc(OCCOCC[N+](C)(C)Cc2ccccc2)cc1 [Benzethonium chloride] | 8.105

Same assay, conditions: glycolytic switch compounds

SMILES | Rank in normalized ORO score from screen
OC(CCN1CCCCC1)(c1ccccc1)C1CC2C=CC1C2 (stereo not shown) [Biperiden hydrochloride] | 135
CC(=O)Oc1ccc(C(c2ccc(OC(C)=O)cc2)c2ccccn2)cc1 [Bisacodyl] | 791
CCCCOC(=O)c1ccc(O)cc1 [Butylparaben] | 23

Same assay, conditions: normalized ORO level vs DMSO-treated cells; compound present during 7 days differentiation, 96-well; negative = decrease in lipid accumulation

SMILES | Z-score
COc1ccc(CC2c3cc(OC)c(OC)cc3CC[N+]2(C)CCC(=O)OCCCCCOC(=O)CC[N+]2(C)CCc3cc(OC)c(OC)cc3C2Cc2ccc(OC)c(OC)c2)cc1OC (stereo not shown) [Atracurium besylate] | 1.182
CN1[C@@H]2CC[C@H]1C[C@@H](OC(=O)C(CO)c1ccccc1)C2 (stereo partly shown) [Atropine sulfate monohydrate] | 1.183
CC1=CC(=O)C2=C(C)C[C@H](O)[C@@H]3[C@H](OC(=O)[C@H]3C)[C@H]12 [Austricine] | −0.5795
OC(c1ccccc1)(c1ccccc1)C1CCNCC1 [Azacyclonol] | −1.0159
Nc1ncn([C@@H]2O[C@H](CO)[C@@H](O)[C@H]2O)c(=O)n1 [Azacytidine-5] | 16.1728
Nc1nc(O)c2[nH]nnc2n1 [Azaguanine-8] | 2.948
O=C(CCCN1CCN(c2ccccn2)CC1)c1ccc(F)cc1 [Azaperone] | 1.543
CCCC1C(=O)N2C(N(C)C)=Nc3ccc(C)cc3N2C1=O (stereo not shown) [Azapropazone] | −0.6493
Cn1cnc([N+](=O)[O-])c1Sc1ncnc2nc[nH]c12 [Azathioprine] | 17.2224
Cc1n[nH]c(=O)[nH]c1=O [Azathymine, 6] | −0.2304
CC1(C)S[C@@H]2[C@H](NC(=O)[C@H](NC(=O)N3CCNC3=O)c3ccccc3)C(=O)N2[C@H]1C(=O)O [Azlocillin sodium salt] | −1.1617
C[C@H]1[C@H](NC(=O)/C(=N\OC(C)(C)C(=O)O)c2csc(N)n2)C(=O)N1S(=O)(=O)O [Aztreonam] | 0.1728
CCOC(=O)OC(C)OC(=O)[C@@H]1N2C(=O)[C@@H](NC(=O)[C@H](N)c3ccccc3)[C@H]2SC1(C)C (stereo partly shown) [Bacampicillin hydrochloride] | 0.09702
CC[C@H](C)[C@H](N)C1=N[C@H](C(=O)N[C@@H](CC(C)C)C(=O)N[C@H](CCC(=O)O)C(=O)N[C@H](C(=O)N[C@H]2CCCCNC(=O)[C@H](CC(N)=O)NC(=O)[C@@H](CC(=O)O)NC(=O)[C@H](Cc3cnc[nH]3)NC(=O)[C@@H](Cc3ccccc3)NC(=O)[C@H]([C@@H](C)CC)NC(=O)[C@@H](CCCN)NC2=O)[C@@H](C)CC)CS1 [Bacitracin] ({Ileψ(thiazoline)Cys}-L[dE]IK[dOrn]I[dF]H[dD]N; lactam 4-C) | −1.0707
CN(C)C(=O)Oc1cc(OC(=O)N(C)C)cc(C(O)CNC(C)(C)C)c1 (stereo not shown) [Bambuterol hydrochloride] | 0.1858
CCC(=O)OCC(=O)[C@@]1(OC(=O)CC)[C@@H](C)C[C@H]2[C@@H]3CCC4=CC(=O)C=C[C@]4(C)[C@@]3(Cl)[C@@H](O)C[C@@]21C [Beclomethasone dipropionate] | −0.2791
CCC1(C)CC(=O)NC(=O)C1 [Bemegride] | −0.3526
NS(=O)(=O)c1cc2c(cc1C(F)(F)F)NC(Cc1ccccc1)NS2(=O)=O (stereo not shown) [Bendroflumethiazide] | 2.297
CC(Cc1cccc(C(F)(F)F)c1)NCCOC(=O)c1ccccc1 (stereo not shown) [Benfluorex hydrochloride] | −1.1069
C/C(=C(\CCOP(=O)(O)O)SC(=O)c1ccccc1)N(C=O)Cc1cnc(C)nc1N [Benfotiamine] | −0.7979
CCCCOc1cc(C(=O)OCCN(CC)CC)ccc1N [Benoxinate hydrochloride] | 0.4398
O=C(CCCN1CCC(n2c(O)nc3ccccc32)CC1)c1ccc(F)cc1 [Benperidol] | −0.2696
NC(CO)C(=O)NNCc1ccc(O)c(O)c1O (stereo not shown) [Benserazide hydrochloride] | −0.638
NC(=NCc1ccccc1)NC(=O)c1nc(Cl)c(N)nc1N [Benzamil hydrochloride] | −1.083

SMILES | Z-score
CC1(C)S[C@@H]2[C@H](NC(=O)Cc3ccccc3)C(=O)N2[C@H]1C(=O)O.CC1(C)S[C@@H]2[C@H](NC(=O)Cc3ccccc3)C(=O)N2[C@H]1C(=O)O.c1ccc(CNCCNCc2ccccc2)cc1 [Benzathine benzylpenicillin] | 0.238
CCc1oc2ccccc2c1C(=O)c1cc(Br)c(O)c(Br)c1 [Benzbromarone] | −0.349
CCOC(=O)c1ccc(N)cc1 [Benzocaine] | 1.149
CCCCNc1ccc(C(=O)OCCOCCOCCOCCOCCOCCOCCOCCOCCOC)cc1 [Benzonatate] | 0.06563
NS(=O)(=O)c1cc2c(cc1Cl)N=C(CSCc1ccccc1)NS2(=O)=O [Benzthiazide] | −1.594
CN(C)CCCOc1nn(Cc2ccccc2)c2ccccc12 [Benzydamine hydrochloride] | −0.3467
CC1(C)S[C@@H]2[C@H](NC(=O)Cc3ccccc3)C(=O)N2[C@H]1C(=O)O [Benzylpenicillin sodium] | −0.794
C[N+](C)(CCOc1ccccc1)Cc1ccccc1.O=C([O-])c1cc2ccccc2cc1O [Bephenium hydroxynaphthoate] | −0.5444
CC(C)COCC(CN(Cc1ccccc1)c1ccccc1)N1CCCC1 (stereo not shown) [Bepridil hydrochloride] | −1.7961
COc1ccc2cc3[n+](cc2c1OC)CCc1cc2c(cc1-3)OCO2 [Berberine chloride] | 12.68
COc1c(O)cc2c(c1O)[C@@H]1O[C@H](CO)[C@@H](O)[C@H](O)[C@H]1OC2=O [Bergenin monohydrate] | −0.7293
CC[C@H](CC[C@@H](C)[C@H]1CC[C@H]2[C@@H]3CC=C4C[C@@H](O)CC[C@]4(C)[C@H]3CC[C@]12C)C(C)C [Beta-sistosterol] | −0.8867
CNCCc1ccccn1.CS(=O)(=O)O.CS(=O)(=O)O [Betahistine mesylate] | 1.556
C[C@H]1C[C@H]2[C@@H]3CCC4=CC(=O)C=C[C@]4(C)[C@@]3(F)[C@@H](O)C[C@]2(C)[C@@]1(O)C(=O)CO [Betamethasone] | −0.1891
CC(C)NCC(O)COc1ccc(CCOCC2CC2)cc1 (stereo not shown) [Betaxolol hydrochloride] | 1.393
NCCc1cc[nH]n1 [Betazole hydrochloride] | −0.1702
CC(C[N+](C)(C)C)OC(N)=O (stereo not shown) [Bethanechol chloride] | −0.3853
C[N+]1(C)C[C@H](O)C[C@H]1C(=O)[O-] [Betonicine] | 0.1235
C=C(C)[C@@H]1CC[C@]2(CO)CC[C@]3(C)[C@H](CC[C@@H]4[C@@]5(C)CC[C@H](O)C(C)(C)[C@@H]5CC[C@]43C)[C@@H]12 [Betulin] | −1.4148
C=C(C)[C@@H]1CC[C@]2(C(=O)O)CC[C@]3(C)[C@H](CC[C@@H]4[C@@]5(C)CC[C@H](O)C(C)(C)[C@@H]5CC[C@]43C)[C@@H]12 [Betulinic acid] | 0.4119
CC(C)(Oc1ccc(CCNC(=O)c2ccc(Cl)cc2)cc1)C(=O)O [Bezafibrate] | −0.2571
CN1CCc2cc3c(cc2[C@H]1[C@@H]1OC(=O)c2c1ccc1c2OCO1)OCO3 [Bicuculline (+)] | −0.5556
O=C(O)CCCC[C@@H]1SC[C@@H]2NC(=O)N[C@@H]21 [Biotin] | 0.1016
OC(CCN1CCCCC1)(c1ccccc1)C1CC2C=CC1C2 (stereo not shown) [Biperiden hydrochloride] | −1.1752

SMILES | Z-score
CC(=O)Oc1ccc(C(c2ccc(OC(C)=O)cc2)c2ccccn2)cc1 [Bisacodyl] | 0.477
CC(C)NCC(O)COc1ccc(COCCOC(C)C)cc1 (stereo not shown) [Bisoprolol fumarate] | 0.03425
COc1cc2c(cc1O)C[C@H]1c3c(cc(O)c(OC)c3-2)CCN1C [Boldine] | −0.6389
CC[N+](C)(C)Cc1ccccc1Br [Bretylium tosylate] | 1.9055
CCN[C@H]1CN(CCCOC)S(=O)(=O)c2sc(S(N)(=O)=O)cc21 [Brinzolamide] | −0.419
CCN(CC)CCNC(=O)c1cc(Br)c(N)cc1OC [Bromopride] | 0.9486
O=C(CCCN1CCC(O)(c2ccc(Br)cc2)CC1)c1ccc(F)cc1 [Bromperidol] | −0.6428
CN(C)CCC(c1ccc(Br)cc1)c1ccccn1 (stereo not shown) [Brompheniramine maleate] | 1.885
CCCC(=O)Nc1ncnc2c1ncn2[C@@H]1O[C@@H]2COP(=O)(O)O[C@H]2[C@H]1OC(=O)CCC [Bucladesine sodium salt] | −0.9927
CCCC1O[C@@H]2C[C@H]3[C@@H]4CCC5=CC(=O)C=C[C@]5(C)[C@H]4[C@@H](O)C[C@]3(C)[C@]2(C(=O)CO)O1 (stereo partly shown) [Budesonide] | 19.1411
CCCCOc1ccc(CC(=O)NO)cc1 [Bufexamac] | 0.678
COc1cc(OC)c(C(=O)CCCN2CCCC2)c(OC)c1 [Buflomedil hydrochloride] | −0.0451
CCCCNc1cc(C(=O)O)cc(S(N)(=O)=O)c1Oc1ccccc1 [Bumetanide] | −1.3983
CCCCN1CCCCC1C(=O)Nc1c(C)cccc1C (stereo not shown) [Bupivacaine hydrochloride] | 0.0187
CC(NC(C)(C)C)C(=O)c1cccc(Cl)c1 (stereo not shown) [Bupropion hydrochloride] | 0.7193
O=C1CC2(CCCC2)CC(=O)N1CCCCN1CCN(c2ncccn2)CC1 [Buspirone hydrochloride] | −0.0845
CCCCN(CCCC)CCCOC(=O)c1ccc(N)cc1 [Butacaine] | −0.9284
CCCCOC(=O)c1ccc(N)cc1 [Butamben] | 0.2903
Clc1ccc(CCC(Cn2ccnc2)Sc2c(Cl)cccc2Cl)cc1 (stereo not shown) [Butoconazole nitrate] | −0.4077
CCCCOC(=O)c1ccc(O)cc1 [Butylparaben] | −1.7629
O=C(O)/C=C/c1ccc(O)c(O)c1 [Caffeic acid] | −1.7446
C=C1CC[C@H](O)C/C1=C/C=C1\CCC[C@]2(C)[C@@H]([C@H](C)/C=C/[C@H](C)C(C)C)CC[C@@H]12 [Calciferol] | 0.2582
CN1CC[C@]23c4ccccc4N[C@H]1[C@]21CCN(C)[C@H]3Nc2ccccc21 [Calycanthine] | −0.8381
CC[C@@]1(O)C(=O)OCc2c1cc1n(c2=O)Cc2cc3ccccc3nc2-1 [Camptothecine (S,+)] | 21.8871

— patent US9393221B2, “Methods and compounds for reducing intracellular lipid storage” (THE GENERAL HOSPITAL CORPORATION, priority 2011, dated 2016)
